Earlier results on 2 substances are cited in patent publication US20180085319A1, “METHODS AND COMPOSITIONS FOR TREATING CANCER” (priority 2016, published 2018).

In this series the test system is anti-immunotoxin immune response.

For Rituximab, the “prevention of anti-immunotoxin immune response in patients” value (B cell depletion) was “ineffective in preventing anti-immunotoxin immune response”. As for “cyclophosphamide and pentostatin [cyclophosphamide and pentostatin (CP/PS)]”, the “effect on immune response to SS1P in mesothelioma patients” value (immunosuppressive treatment given with SS1P) is “only delayed the response to the immunotoxin”.
